Test results reported in ChEMBL document CHEMBL6109106, “Rational design, synthesis and anti-inflammatory activity of 6-substituted dihydrobenzophenanthridine derivatives” (Bioorg Med Chem, 2025).
Activity calls are given as the source filed them. The calls are words filed in the database; no cut-off is given here.

Key:
RAW264.7 [1] = test: Anti-inflammatory activity in LPS-induced mouse RAW264.7 cells assessed as NO emission at 20 uM preincubated with compound for 1 hrs followed by LPS stimulation and measured after 24 hrs by Griess reagent based analysis (reference value: 14.05 +/- 1.19 microM); format: functional; settings: time 25 hrs
RAW264.7 [2] = test: Anti-inflammatory activity in LPS-induced mouse RAW264.7 cells assessed as inhibition of NO release at 20 uM preincubated with compound for 1 hrs followed by LPS stimulation and measured after 24 hrs by Griess reagent based analysis (reference value: 0 %); format: functional; settings: for inhibition at 20 µM: Mus musculus; for inhibition (INH): time 25 hrs
[3] = (§1) Cytotoxicity against mouse RAW264.7 cells assessed as survival rate at 20 uM incubated for 24 hrs by MTT assay (reference value: 100 %); format: toxicity, cell-based; settings: RAW264.7 cells, read-out: Survival
Mus musculus [4] = test: Anti-inflammatory activity in DSS-induced acute colitis male C57BL/6 mouse model assessed as complete colonic mucosa with crypts at 200 mg/kg, po administered for 7 days by H and E staining based analysis; format: functional, organism-based; settings: time 7.0 day
Mus musculus [5] = test: Anti-inflammatory activity in DSS-induced acute colitis male C57BL/6 mouse model assessed as reduction in infiltration of inflammatory cells in colon at 200 mg/kg, po administered for 7 days by H and E staining based analysis; format: functional, organism-based; settings: time 7.0 day
RAW264.7 [6] = test: as §1; format: toxicity, cell-based; settings: raw264.7, 24 h, 20 µM
Mus musculus [7] = test: Anti-inflammatory activity in DSS-induced acute colitis male C57BL/6 mouse model assessed as decrease in IL1beta expression level in colon at 20 to 80 mg/kg, po administered for 7 days by immunohistochemical staining based analysis; format: functional, organism-based; settings: dose 20-80 mg/kg, time 7.0 day
RAW264.7 [8] = test: Anti-inflammatory activity in LPS-induced mouse RAW264.7 cells assessed as reduction in IL-6 level at >40 uM preincubated with compound for 1 hrs followed by LPS stimulation and measured after 24 hrs by ELISA; format: functional, cell-based; settings: time 25.0 hrs
RAW264.7 [9] = test: Anti-inflammatory activity in LPS-induced mouse RAW264.7 cells assessed as reduction in TNFalpha level preincubated with compound for 1 hrs followed by LPS stimulation and measured after 24 hrs by ELISA; format: functional, cell-based; settings: dose 10-160 µM, time 25.0 hrs
RAW264.7 [10] = test: Cytotoxicity against mouse RAW264.7 cells assessed as reduction in cell viability up to 160 uM incubated for 24 hrs by MTT assay; format: toxicity, cell-based; settings: raw264.7, 24 h
Mus musculus [11] = test: Anti-inflammatory activity in DSS-induced acute colitis male C57BL/6 mouse model assessed as complete colonic mucosa with crypts administered orally for 7 days by H and E staining based analysis; format: functional, organism-based; settings: dose 20-80 mg/kg, route po, time 7.0 day
Mus musculus [12] = test: Anti-inflammatory activity in DSS-induced acute colitis male C57BL/6 mouse model assessed as reduction in infiltration of inflammatory cells in colon administered orally for 7 days by H and E staining based analysis; format: functional, organism-based; settings: dose 20-80 mg/kg, route po, time 7.0 day
RAW264.7 [13] = test: Anti-inflammatory activity in LPS-induced mouse RAW264.7 cells assessed as reduction in TNFalpha level at >20 uM preincubated with compound for 1 hrs followed by LPS stimulation and measured after 24 hrs by ELISA; format: functional, cell-based; settings: time 25.0 hrs
Mus musculus [14] = test: Anti-inflammatory activity in DSS-induced acute colitis male C57BL/6 mouse model assessed as decrease in IL6 expression level in colon at 20 to 80 mg/kg, po administered for 7 days by immunohistochemical staining based analysis; format: functional, organism-based; settings: dose 20-80 mg/kg, time 7.0 day
RAW264.7 [15] = test: Anti-inflammatory activity in LPS-induced mouse RAW264.7 cells assessed as reduction in IL-6 level preincubated with compound for 1 hrs followed by LPS stimulation and measured after 24 hrs by ELISA; format: functional, cell-based; settings: dose 10-160 µM, time 25.0 hrs
Mus musculus [16] = test: Anti-inflammatory activity in DSS-induced acute colitis male C57BL/6 mouse model assessed as decrease in TNF-alpha expression level in colon at 20 to 80 mg/kg, po administered for 7 days by immunohistochemical staining based analysis; format: functional, organism-based; settings: dose 20-80 mg/kg, time 7.0 day
Mus musculus [17] = test: Anti-inflammatory activity in DSS-induced acute colitis male C57BL/6 mouse model assessed as increase in intestine length at 20 to 80 mg/kg, po administered for 7 days; format: functional, organism-based; settings: dose 20-80 mg/kg, time 7.0 day

| Structure (SMILES) | Activity (RAW264.7 [1]) [µM] | inhibition at 20 µM (RAW264.7 [2]; RAW264.7, 25 h) [%] | viability at 24 h, 20 µM [3] [%] | also measured |
| --- | --- | --- | --- | --- |
| CCCCNC(=O)CC1c2c(ccc(OC)c2OC)-c2ccc3cc4c(cc3c2N1C)OCO4 (centres undefined) | 8.22 | 41.1 | 92.1 |  |
| CCC(C)C1c2c(ccc(OC)c2OC)-c2ccc3cc4c(cc3c2N1C)OCO4 (centres undefined) | 11.52 | 17 | 91.3 |  |
| C=C(CC1c2c(ccc(OC)c2OC)-c2ccc3cc4c(cc3c2N1C)OCO4)C(=O)OC (centres undefined) | 10.14 | 27.2 | 130 |  |
| COc1ccc2c(c1OC)CN(C)c1c-2ccc2cc3c(cc12)OCO3 [DIHYDROCHELERYTHRINE] | 9.91 | 28.9 | 94.3 |  |
| CCOC(=O)CC1c2c(ccc(OC)c2OC)-c2ccc3cc4c(cc3c2N1C)OCO4 (centres undefined) | 9.56 | 31.3 | 94.4 |  |
| CCOC(=O)CC1c2c(ccc3c2OCO3)-c2ccc3cc4c(cc3c2N1C)OCO4 (centres undefined) | 10.5 | 24.5 | 109 |  |
| COC(=O)CCC1c2c(ccc3c2OCO3)-c2ccc3cc4c(cc3c2N1C)OCO4 (centres undefined) | 10.94 | 21.4 | 110 |  |
| Nc1ccc(O)c(C(=O)O)c1 |  |  |  | Activity (Mus musculus [4]): Active; Activity (Mus musculus [5]): Active |
| CCC(C)C1c2c(ccc3c2OCO3)-c2ccc3cc4c(cc3c2N1C)OCO4 (centres undefined) | 13.15 | 5.57 | 114 |  |
| CN1c2c(ccc3cc4c(cc23)OCO4)-c2ccc3c(c2C1CC(=O)[O-])OCO3.[Na+] (centres undefined) | 11.66 | 16.1 | 91.8 |  |
| COc1ccc2c(c1OC)C(CC(=O)O)N(C)c1c-2ccc2cc3c(cc12)OCO3 (centres undefined) | 9.1 |  |  | inhibition (INH) (RAW264.7 [2]): 34.87%; Survival (RAW264.7 [6]): 82.98% |
| CCCOC(=O)C(C)C1c2c(ccc(OC)c2OC)-c2ccc3cc4c(cc3c2N1C)OCO4 (centres undefined) | 12.5 | 10.3 | 122 |  |
| CN1c2c(ccc3cc4c(cc23)OCO4)-c2ccc3c(c2C1CC(=O)O)OCO3 (centres undefined) | 9.55 |  |  | inhibition (INH) (RAW264.7 [2]): 31.45%; Survival (RAW264.7 [6]): 93.19% |
| CN1Cc2c(ccc3c2OCO3)-c2ccc3cc4c(cc3c21)OCO4 [DIHYDROSANGUINARINE] | 10.36 |  | 88.7 | inhibition at 20 µM (RAW264.7 [2]; RAW264.7, time 25 hrs): 26.1% |
| CN1c2c(ccc3cc4c(cc23)OCO4)-c2ccc3c(c2C1CCO)OCO3 (centres undefined) | 11.57 | 10.1 | 160 |  |
| COC(=O)C(C)C1c2c(ccc(OC)c2OC)-c2ccc3cc4c(cc3c2N1C)OCO4 (centres undefined) | 11.2 | 19 | 101 |  |
| CCCCNC(=O)CC1c2c(ccc3c2OCO3)-c2ccc3cc4c(cc3c2N1C)OCO4 (centres undefined) | 10.48 | 24.5 | 101 |  |
| COC(=O)CCC1c2c(ccc(OC)c2OC)-c2ccc3cc4c(cc3c2N1C)OCO4 (centres undefined) | 10.11 | 27.5 | 97.7 |  |
| CN1c2c(ccc3cc4c(cc23)OCO4)-c2ccc3c(c2C1CC(=O)Nc1ccccc1)OCO3 (centres undefined) | 9.28 | 33.1 | 125 |  |
| C=C(CC1c2c(ccc3c2OCO3)-c2ccc3cc4c(cc3c2N1C)OCO4)C(=O)OC (centres undefined) | 12.66 | 9.4 | 111 |  |
| COc1ccc2c(c1OC)C(CC(=O)[O-])N(C)c1c-2ccc2cc3c(cc12)OCO3.[Na+] (centres undefined) | 12.98 |  | 98.8 | inhibition (INH) (RAW264.7 [2]): 6.77% |
| COc1ccc2c(c1OC)C(CCO)N(C)c1c-2ccc2cc3c(cc12)OCO3 (centres undefined) | 9.75 | 30.1 | 103 |  |
| COc1ccc2c(c1OC)C(CC(=O)Nc1ccccc1)N(C)c1c-2ccc2cc3c(cc12)OCO3 (centres undefined) | 8.16 | 41.6 | 136 | Activity (Mus musculus [7]): Active; Activity (RAW264.7 [8]): Active; Activity (RAW264.7 [9]): Dose-dependent-effect; Activity (RAW264.7 [10]): Non-toxic; Activity (Mus musculus [11]): Dose-dependent-effect; Activity (Mus musculus [12]): Dose-dependent-effect; Activity (RAW264.7 [13]): Active; Activity (Mus musculus [14]): Active; Activity (RAW264.7 [15]): Dose-dependent-effect; Activity (Mus musculus [16]): Active; Activity (Mus musculus [17]): Active |
